# Measurements: US7005449B2, “Tolterodine salts” (Pharmacia & Upjohn Company, priority 2002, dated 2006)
# Key:
# [1] = Rotating disk dissolution of tolterodine salts; type: physicochemical; conditions: 25° C.; for Rotating disk dissolution rate (RDDR): pH 6, 0.05 M phosphate buffer
# Protocol: Data was collected on the salts. Rotating disk dissolution data was collected at pH 6 in a 0.05 M phosphate buffer at 25° C. on a fiber optic apparatus.
# [2] = Rotating disk dissolution of tolterodine salts; type: physicochemical; conditions: extrapolated from carbon chain length trend
# [3] = traditional tablet administration; cited from earlier work
# [4] = Equilibrium solubility of tolterodine salts (shaking excess salt 24 hours, RP-HPLC)
# Protocol: The resultant solution is centrifuged at 5000 rpm for 30 min in a temperature-controlled centrifuge. The supernatant was diluted and analysed for tolterodine by reversed phase high performance liquid chromatography (RP-HPLC).
compound,measurement,setting,value
CCCCCCCCCC(=O)O.Cc1ccc(O)c([C@H](CCN(C(C)C)C(C)C)c2ccccc2)c1 [caprate],Rotating disk dissolution rate (RDDR),[1],0.75 μg cm^−2s^−1
CCCCCCCCCCCCCC(=O)O.Cc1ccc(O)c(C(CCN(C(C)C)C(C)C)c2ccccc2)c1 (centres unmarked) [myristic (14 C)],predicted dissolution rate,[2],very low
CCCCCCCCCCCCCCCC(=O)O.Cc1ccc(O)c(C(CCN(C(C)C)C(C)C)c2ccccc2)c1 (centres unmarked) [palmitic (16 C)],predicted dissolution rate,[2],very low
"Cc1ccc(O)c(C(CCN(C(C)C)C(C)C)c2ccccc2)c1.O=C(O)c1cc2ccccc2c(Cc2c(O)c(C(=O)O)cc3ccccc23)c1O [pamoate, tolterodine pamoate]",Rotating disk dissolution rate (RDDR),[1],<0.3 μg cm^−2s^−1
same,Rotating disk dissolution rate (RDDR),[1]; listed as pamoate salt,less than the detection limit of the instrument
"Cc1ccc(O)c([C@H](CCN(C(C)C)C(C)C)c2ccccc2)c1.O=C(O)C(O)C(O)C(=O)O [tartrate, tolterodine tartrate, reference compound]",rotating disk dissolution rate,[1]; pH 6 media,14 μg cm^−2sec^−1
same,Rotating disk dissolution rate (RDDR),[1],14.0 μg cm^−2s^−1
"Cc1ccc(O)c([C@H](CCN(C(C)C)C(C)C)c2ccccc2)c1 [tolterodine, 2-[(1R)-3-(diisopropylamino)-1-phenylpropyl]-4-methylphenol]",time of peak plasma concentration,[3],1 to 2 h
benzoate,Rotating disk dissolution rate (RDDR),[1],2.1 μg cm^−2s^−1
fumarate,Rotating disk dissolution rate (RDDR),[1],2.6 μg cm^−2s^−1
laurate,Rotating disk dissolution rate (RDDR),[1],0.38 μg cm^−2s^−1
maleate,Rotating disk dissolution rate (RDDR),[1],4.1 μg cm^−2s^−1
same,Equilibrium solubility in buffer,"[4]; 0.1 M phosphate buffer pH 7.4, 24 hours, room temperature",4.7 mg/mL
same,final pH in buffer,[4]; final pH of the buffer solubility sample,6.9
same,final pH in water,[4]; final pH of the water solubility sample,5.0
same,Equilibrium solubility in water,"[4]; water, 24 hours, room temperature",1.5 mg/mL
tolterodine heptanoate,Rotating disk dissolution rate (RDDR),[1],2.7 μg cm^−2s^−1
